Experimental data reported in paper PMC11868579 (Nature Communications, 2024).

Tests used:
[1] = system: 4E-BP1 protein expression; test: Immunoblot of 4E-BP1 expression after dTAGV-1; format: cell-based, human; settings: 1μM, control = 1.00
Description: Supplementary Fig. 15 Expression of 4E-BP1 following dTAGV-1 treatment. a […]
16 hr treatment of 1 µM dTAGV-1 or DMSO control in H1299 parental cells and the […]
Vinculin was used as a loading control. Results are representative of 3 biological replicates. b Quantification of 4E-BP1 protein expression […]
was normalised to the DMSO negative control immunoblot (mean ± SEM of 3 […]
differences (p<0.05). Source data is located in the Supplementary Source Data file.
(1 picture or pasted object on this page, not shown here)

[2] = system: cap-dependent translation; test: HeLa in vitro translation assay, cap-dependent reporter; format: biochemical, human; settings: for fLuc (CAP) luminescence normalized to DMSO control, Average: HeLa lysate IVT, n=3
Description: HeLa In vitro translation (IVT) assay kits were purchased from Thermo Fisher(cat#88882). Bicistronic reporter mRNA was prepared from using a CMV/T7-renilla luciferase-IRES(FDMV)-firefly luciferase reporter vector as template DNA (supplied by Oxford Genetics Ltd.) using Message Machine T7 Ultra transcription Kit (Thermo Fisher, cat# AM1345) to generate in vitro transcribed mRNA. DNA template was removed with Turbo DNase from the transcription kit and the mRNA purified using RNeasy columns (Qiagen, cat#74204). RNA concentration was adjusted to 1 µg/µl using a Nanodrop. In vitro translation assays were then set up using a HeLa IVT kit according to the manufacturer’s protocol. The reaction was analysed using Dual Glo luciferase reporter assays (Promega, cat#E2920). Compounds were diluted from 100x DMSO stocks 1:10 in PBS and 2.5 µl transferred to 96 well PCR plates (Starlab, cat#I1402-9700). 22.5 µl IVT reaction mix (1.5 mL HeLa lysate, 60 µl RNAsin (Promega, cat#N2115), 300 µl accessory proteins, 600 µl reaction buffer, 200 µl nuclease free water and 30 µl […] mRNA) was added and incubated for 30 min at 30 °C (PCR alphacycler 4, PCRmax, Stone, Staffordshire, UK). The samples were placed on ice for 10 min, then 10 µl was removed and transferred to a white 96 well assay plate (Corning, cat#3917). […]

Caco-2 monolayer = test: Caco-2 permeability assay; format: in vitro ADME
Description: Caco-2 permeability Assay
The permeability of Compound 4 was assessed using the CacoReady system.
Compound 4 and control compounds (propranolol, antipyrine, and vinblastine) were incubated at a final concentration of 10 µM in duplicate to either the apical (180 µL) of the monolayer to measure apical to basolateral transport (A > B) across the cell barrier or to the basolateral side (750 µL) to measure the basolateral to apical transport (B > A). For A > B spiking, test and control compounds were diluted from 10 mM DMSO stocks to 10 µM in HBSS buffer with 100 mM CaCl2·2H2O, 50 mM MgCl2·5H2O, and 0.5 mg/mL lucifer yellow made to volume with sterile water (lucifer yellow was used to determine the integrity of the Caco-2 monolayer). For B > A compound spiking, test and control compounds were prepared as for the A > B solutions without the addition of lucifer yellow. Test and control compounds were incubated for 1 h at +37 °C in a highly humidified atmosphere of 95% air and 5% CO2. […]

[3] = Human microsomal clearance assay; format: in vitro ADME
[4] = Aqueous kinetic solubility at pH 7.5 by qNMR; format: physicochemical; settings: 50 mM HEPES, 100 mM NaCl, 1 mM TCEP
Description: Measurement of aqueous kinetic solubility at pH 7.5
Solubility was measured in 50 mM HEPES, 100 mM NaCl (15% D2O, 85% H2O) in the presence of 1 mM TCEP at pH 7.5. Samples were prepared at 50 mM in DMSO-d6, diluted x 50 into buffer affording nominal concentrations of 1 mM and analysed by 1H quantitative NMR. Spectra were acquired at 300K in 5 mm tubes on a 400 MHz Bruker Avance III HD spectrometer equipped with a BBO-F probe using water suppression (presat/Watergate). A 5 mM sample of 4-hydroxybenzoic acid was used

SMILES | Quantification of 4E-BP1 protein expression, Average ([1]; H1299 cells) | Quantification of 4E-BP1 protein expression, Average ([1]; eIF4E dTAG C3-1 clone) | effect on cap-dependent translation ([2]; 1, 10, 100 µM) | fLuc (CAP) luminescence normalized to DMSO control, Average ([2]; 1 μM) | fLuc (CAP) luminescence normalized to DMSO control, Average ([2]; 10 μM) | fLuc (CAP) luminescence normalized to DMSO control, Average ([2]; 100 μM) | permeability in Caco2 assay (Caco-2 monolayer) | Caco-2 permeability Papp (A-B) (Caco-2 monolayer; 10 µM, 1 h) | efflux ratio (Caco-2 monolayer; Caco2) | Human microsomal intrinsic clearance ([3]; 1 µM, 0.25 mg/mL microsomes) | clearance in human liver microsomes ([3]; human) | Aqueous kinetic solubility (pH7.5) [4]
CC[C@H](C(=O)N1CCCC[C@H]1C(=O)O[C@H](CCc1ccc(OC)c(OC)c1)c1ccccc1OCC(=O)NCCCCCCC(=O)N[C@H](C(=O)N1C[C@H](O)C[C@H]1C(=O)N[C@@H](C)c1ccc(-c2scnc2C)cc1)C(C)(C)C)c1cc(OC)c(OC)c(OC)c1 [dTAG^V-1] | 0.99 | 0.88 | – | – | – | – | – | – | – | – | – | –
CC[C@@H](O[C@H](C)CO)c1ccc(-c2ccccc2F)cc1NCCO [Compound 5] | – | – | no significant effect | 115.8% | 67.5% | 84.6% | – | – | – | – | – | –
CC[C@H](O[C@H](C)CO)c1ccc(-c2ccccc2F)cc1NCCO [Compound 4] | – | – | – | 79.4% | 29.0% | 23.9% | good permeability | 9 ×10⁻⁶ cm/s | 1.5 | 210 µL/min/mg protein | moderate clearance | 400 µM
